# According to patent US20090286695A1, “LUMINESCENT STEM CELLS AND USES THEREOF” (AXXAM S.P.A., priority 2006, published 2009):
# What was measured:
# Type in all cases: cell-based, mouse
# [1] = tested on: Metabotropic or Ionotropic Glutamate Receptors; assay: FLIPR384 Fluo-4 NW calcium test on undifferentiated and neuron-differentiated P19/mito c-Photina/1A1 clone; details: 100 μM final; undifferentiated cells vs day 8 neurons; FIG. 23
# Protocol: Concerning undifferentiated P19/mito c-Photina®/1A1 clone, 3000 cells/well were seeded in gelatin coated 384 well plates. 24 h after seeding the cells were incubated with 25 μl/well of Fluo-4 NW® calcium sensitive fluorescent dye in the dark.
# Concerning neurons differentiated from P19/mito c-Photina®/1A1 clone, at day 8 of the neuronal differentiation protocol (4 days after seeding in poly D-lysine coated 384 well plates) cells were incubated with 25 μl/well of Fluo-4 NW® calcium sensitive fluorescent dye in the dark.
# Both plates were incubated for 30 minutes at 37° C. and then for 30 minutes at room temperature.
# 12.5 μl/well of the following 3× compounds in tyrode buffer were injected, and the fluorescence signal was recorded for 330 sec and expressed as RFU.
# The same experiment was in contemporary performed on undifferentiated P19/mito c-Photina® 1A1 clone (at 24 h after seeding of 3000 cells/well in 384 MTP, FIG. 23A).
# [2] = tested on: Voltage-gated Calcium Channels; assay: CCD camera-based luminometer test on neurons differentiated from P19/mito c-Photina/1A1 clone; details: 40 mM; differentiation day 8 and 11; 384 MTP; tyrode as control; FIG. 21
# Protocol: At day 8 and day 11 of the neuronal differentiation protocol (respectively 4 and 7 days after seeding in poly D-lysine coated 384 MTP), neurons differentiated from P19/mito c-Photina®/1A1 clone were incubated with 25 μl/well of 10 μM coelenterazine in standard tyrode buffer, for 4 hrs at 37° C.
# Response to a depolarizing stimulus induced by injection of 40 mM KCl was recorded at CCD camera-based luminometer (conditions: high sensitivity, reading time 60 seconds).
# The functionality of these cells was also investigated at CCD camera-based luminometer. At differentiation day 8 and 11 (respectively 4 and 7 days after disaggregation of Embryoid Bodies and seeding on poly D-lysine in 384 MTP), the cells were incubated for 4 h with a tyrode solution containing 10 μM coelenterazine.
# [3] = tested on: neurons differentiated from P19/mito c-Photina/1A1 clone; assay: FLIPR384 Fluo-4 NW test on neurons differentiated from P19/mito c-Photina/1A1 clone; details: 40 mM, differentiation day 8, FIG. 22
# Protocol: 12.5 μl/well of 120 mM KCl (3×) solution was injected, and the fluorescence signal was recorded for 360 sec and expressed as RFU (Relative Fluorescence Units).
# At differentiation day 8 the same cells were analyzed also at FLIPR^384 incubating the cells with FLUO-4 NW® and injecting 40 mM KCl depolarizing agent.
# [4] = tested on: α1-Adrenergic Receptor; assay: CCD camera-based luminescent functional test on cardiomyocytes differentiated from ES/mito c-Photina/29 clone; details: 100 μM; 20,000 c/w in 96 MTP; 10 μM coelenterazine; high sens., 60 sec; FIG. 8A
# [5] = tested on: GqPCR Endothelin Receptors; assay: as above; details: 50 nM; 20,000 c/w in 96 MTP; 10 μM coelenterazine; high sens., 60 sec; FIG. 8A
# Protocol: CCD-Camera Based Luminometer Measurements with Cardiomyocytes • EBs were dissociated at differentiation day 9 with Accutase™ (Chemicon, Cat. N. SCR005), counted and incubated (20000 cells/well in a 96 MTP) in 10 μM coelenterazine in standard tyrode buffer (for the test on GqPCRs) and in tyrode without KCl (for the test on L-type Calcium Channels) for 3 hrs at 37° C. • The tests were run 3 h after cell seeding. • The responses to 50 nM Endothelin-1, 100 μM Noraepinephrine were measured at the CCD camera-based luminometer (conditions: high sensitivity, reading time 60 seconds). • The Voltage gated Calcium Channels were stimulated with 40 mM KCl. The specificity of the channels was checked incubating the cells 15 minutes before he measurement with 5 μM Nifedipine (a specific L-type Voltage-gated Calcium Channel inhibitor) (SIGMA, Cat. N. N7634). • Residual total photoprotein activity was measured after Triton X-100 cell lysis at the CCD camera-based luminometer (conditions: high sensitivity, for 30 seconds). Neuronal Differentiation Protocol with the Embryoid Bodies (EBs) Formation Step
# Preliminary functional tests were performed at the CCD camera-based luminometer instrument after Embryoid Bodies disaggregation with Accutase® buffer and resuspension in 10 μM coelenterazine tyrode buffer. The cells were counted and seeded at a cellular concentration of 20,000 c/w in a 96 MTP. […]
compound,measurement,setting,value
N[C@@H](CCC(=O)O)C(=O)O [Glutamate],"fluorescence signal after stimulation, undifferentiated vs differentiated cells",[1],much higher in the differentiated cells than in the undifferentiated ones
[Cl-].[K+] [KCl],luminescence response to depolarizing stimulus,[2],optimal responses
same,fluorescence signal (calcium entry) after depolarizing agent,[3],sensible increase of the signal
NC[C@H](O)c1ccc(O)c(O)c1 [Norephinephrine],luminescence response (calcium) to agonist,[4],strong
Endothelin-1,luminescence response (calcium) to agonist,[5],strong
